Source: ChEMBL document CHEMBL1139381 (J Med Chem, 2009)

What was measured:
[1] = test system: Plasmodium falciparum; assay: Antimalarial activity after 72 hrs against chloroquine-resistant Plasmodium falciparum W2 infected human A+ erythrocytes by Makler LDH reporter assay; type: functional, organism-based; conditions: W2, 72 h
[2] = test system: Plasmodium falciparum; assay: Antimalarial activity after 48 hrs against chloroquine-resistant asynchronous Plasmodium falciparum K1 infected human A+ erythrocytes by [3H]hypoxanthine uptake; type: functional, organism-based
[3] = Cytotoxicity against human KB cells by MTT assay; type: cell-based; conditions: read-out: TC50 (the source's name)
[4] = test system: Plasmodium falciparum; assay: Antimalarial activity after 24 hrs against chloroquine-resistant synchronous Plasmodium falciparum K1 infected human A+ erythrocytes by [3H]hypoxanthine uptake; type: functional, organism-based
[5] = test system: Plasmodium falciparum; assay: Antimalarial activity after 24 hrs against chloroquine-sensitive Plasmodium falciparum 3D7 infected human A+ erythrocytes by [3H]hypoxanthine uptake; type: functional, organism-based
[6] = test system: Plasmodium falciparum; assay: Antimalarial activity after 48 hrs against chloroquine-sensitive Plasmodium falciparum NF54 infected human A+ erythrocytes by [3H]hypoxanthine uptake; type: functional, organism-based
[7] = test system: Plasmodium falciparum; assay: Antimalarial activity after 72 hrs against chloroquine-sensitive Plasmodium falciparum D10 infected human A+ erythrocytes in Makler LDH reporter assay; type: functional, organism-based; conditions: D10, 72 h
[8] = test system: Plasmodium chabaudi; assay: Antimalarial activity as reduced parasitaemia against Plasmodium chabaudi AS infected CD1 mice (Mus musculus) at 50 mg/kg/day peroral dose; type: functional; set-up: scale not given: the % may be the effect or the level left; conditions: route oral
[9] = Cytotoxicity against human Daudi cells by MTT assay; type: cell-based; conditions: read-out: TC50 (the source's name)
[10] = Cytotoxicity against mouse NSO cells by MTT assay; type: cell-based; conditions: read-out: TC50 (the source's name)
[11] = Cytotoxicity against PHA-stimulated human lymphocytes by MTT assay; type: cell-based, Lymphocyte; conditions: read-out: TC50 (the source's name)
[12] = Cmax in CD1 albino mouse at 50 mg/kg, po after 60 mins; type: ADME, organism-based; set-up: dose 50 mg/kg, route oral; conditions: in vivo
[13] = test system: Mus musculus; assay: AUC (0 to t) in CD1 albino mouse at 50 mg/kg, po after 60 mins; type: ADME, organism-based, Plasma; set-up: time < 1 hr, dose 50 mg/kg, route oral; conditions: in vivo, 1 h
[14] = test system: Rattus norvegicus; assay: AUC (0 to t) in CD-COBS rat at 50 mg/kg, po after 60 mins; type: ADME, organism-based, Plasma; set-up: time < 1 hr, dose 50 mg/kg, route oral; conditions: in vivo, 1 h
[15] = target: T1, Histidine-rich protein PFHRP-II (Plasmodium falciparum) (UniProt P05227); assay: Inhibition of beta-hematin assessed as molar equivalents at pH 2.7 after 18 hrs by spectrophotometric microassay relative to hemin; type: functional
T1 sequence (whole entry): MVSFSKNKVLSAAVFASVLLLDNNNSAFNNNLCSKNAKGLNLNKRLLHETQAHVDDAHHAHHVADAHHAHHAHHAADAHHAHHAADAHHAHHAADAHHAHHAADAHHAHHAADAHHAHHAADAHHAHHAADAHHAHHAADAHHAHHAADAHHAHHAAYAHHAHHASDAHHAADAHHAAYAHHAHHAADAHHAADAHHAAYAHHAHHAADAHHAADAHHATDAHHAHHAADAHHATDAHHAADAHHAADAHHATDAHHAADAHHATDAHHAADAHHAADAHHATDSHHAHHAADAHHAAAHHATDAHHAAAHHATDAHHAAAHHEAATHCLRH

[16] = Cmax in CD-COBS rat at 50 mg/kg, po after 60 mins; type: ADME, organism-based; set-up: time < 1 hr, dose 50 mg/kg, route oral; conditions: in vivo, read-out: AUC
[17] = Apparent volume of distribution in CD-COBS rat at 5 mg/kg, iv; type: ADME, organism-based; set-up: dose 5 mg/kg, route intravenous; conditions: in vivo
[18] = test system: Plasmodium berghei; assay: Antimalarial activity as increased survival against Plasmodium berghei ANKA infected CD1 mice (Mus musculus) at 50 mg/kg/day peroral dose over 4 days; type: functional; conditions: route oral
[19] = test system: Liver; assay: AUC (0 to t) in CD1 albino mouse liver at 50 mg/kg, po after 180 mins; type: ADME, organism-based; set-up: time < 3 hr, dose 50 mg/kg, route oral; conditions: in vivo, 3 h
[20] = test system: Plasmodium berghei; assay: Antimalarial activity as reduced parasitaemia against Plasmodium berghei ANKA infected CD1 mice (Mus musculus) at 50 mg/kg/day peroral dose over 4 days; type: functional; set-up: scale not given: the % may be the effect or the level left; conditions: route oral
[21] = Ratio of drug level in liver to plasma of CD1 albino mouse at 50 mg/kg, po after 180 mins; type: ADME, organism-based; set-up: dose 50 mg/kg, route oral; conditions: liver and plasma
[22] = test system: Liver; assay: AUC (0 to t) in CD-COBS rat liver at 50 mg/kg, po after 180 mins; type: ADME, organism-based; set-up: time < 3 hr, dose 50 mg/kg, route oral; conditions: in vivo, 3 h
[23] = Ratio of drug level in liver to plasma of CD-COBS rat at 50 mg/kg, po after 180 mins; type: ADME, organism-based; set-up: dose 50 mg/kg, route oral; conditions: liver and plasma
[24] = Ratio of drug level in blood to plasma of CD-COBS rat at 5 mg/kg, iv; type: ADME, organism-based; set-up: dose 5 mg/kg, route intravenous; conditions: blood and plasma
[25] = Liver concentration in CD1 albino mouse at 50 mg/kg, po after 180 mins
[26] = Liver concentration in CD-COBS rat at 50 mg/kg, po after 180 mins
[27] = Elimination half life in CD-COBS rat at 5 mg/kg, iv; type: ADME, organism-based; set-up: dose 5 mg/kg, route intravenous; conditions: in vivo
[28] = test system: Plasmodium berghei; assay: Antimalarial activity as increased survival against Plasmodium berghei ANKA infected CD1 mice (Mus musculus) at 10 mg/kg/day peroral dose over 4 days; type: functional; conditions: route oral
[29] = test system: Plasmodium chabaudi; assay: Antimalarial activity as reduced parasitaemia against Plasmodium chabaudi AS infected CD1 mice (Mus musculus) at 10 mg/kg/day peroral dose over 4 days; type: functional; set-up: scale not given: the % may be the effect or the level left; conditions: route oral
[30] = test system: Plasmodium berghei; assay: Antimalarial activity as reduced parasitaemia against Plasmodium berghei ANKA infected CD1 mice (Mus musculus) at 150 mg/kg/day oral dose over 4 days; set-up: scale not given: the % may be the effect or the level left

Structure (SMILES)	IC50 [1]	IC50 [2]	CC50 [3]	IC50 [4]	IC50 [5]	IC50 [6]	IC50 [7]	Activity [8]	CC50 [9]	CC50 [10]	CC50 [11]	other results
COc1ccc2nccc(NC(c3ccc(Cl)cc3)c3ccc(CN4CCCC4)cc3)c2c1 (racemic)	82 nM	32 nM	8500 nM	60 nM	8 nM	32 nM	57 nM					
COc1ccc2nccc(NC(c3ccc(Cl)cc3)c3ccc(CN4CCOCC4)cc3)c2c1 (racemic)	65 nM	54 nM				33 nM	67 nM					
FC(F)(F)c1cc(NC(c2ccc(Cl)cc2)c2ccc(CN3CCCC3)cc2)c2cccc(C(F)(F)F)c2n1 (racemic)	1370 nM		213000 nM	450 nM	100 nM		1240 nM					
Clc1ccc(C(Nc2ccnc3cc(Cl)ccc23)(c2ccccc2)c2ccc(CN3CCCC3)cc2)cc1 (racemic)	51 nM			22 nM	3 nM		40 nM	99.9%				
FC(F)(F)c1ccc2c(NC(c3ccc(Cl)cc3)c3ccc(CN4CCCC4)cc3)ccnc2c1 (racemic)	90 nM	20 nM	5500 nM	30 nM		33 nM	61 nM	99.6%	14100 nM	12100 nM	24200 nM	
Clc1cccc(C(Nc2ccnc3cc(Cl)ccc23)c2ccc(CN3CCCC3)cc2)c1 (racemic)	22 nM	16 nM		65 nM	24 nM	12 nM	21 nM	98%	34600 nM	23800 nM	54100 nM	Cmax [12]: 330 ng/mL; AUC [13]: 725 ng·h/mL; AUC [14]: 422 ng·h/mL; Ratio [15]: 1.33; Cmax [16]: 180 ng/mL; Vd [17]: 48 L/kg; Survival [18]: 18 days; AUC [19]: 7061 µg/g; Activity [20]: 98%; Kp at 3 h [21]: > 100; AUC [22]: 2945 µg/g; Kp at 3 h [23]: > 100; blood plasma ratio [24]: 1.1; concentration at 3 h [25]: 52200 ng/g; concentration at 3 h [26]: 30500 ng/g; half-life [27]: 3 h
FC(F)(F)c1ccc2c(NC(c3ccc(CN4CCOCC4)cc3)c3cccc(Cl)c3)ccnc2c1 (racemic)	304 nM						234 nM					
CCN(CC)CCCC(C)Nc1ccnc2cc(Cl)ccc12 (stereo unspecified) [CHLOROQUINE]									16700 nM	14900 nM	18600 nM	Survival [28]: 16.3 days; Activity [29]: 99.9%
Clc1ccccc1C(c1ccccc1)(c1ccccc1)n1ccnc1 [CLOTRIMAZOLE]								6%				Activity [30]: 28.3%
